Read-outs that look alike come from different tables or passages of the source.
Key:
[1] = Ussing chamber drug transport across pediatric intestinal tissue; conditions: human
[2] = Ussing chamber drug transport across adult intestinal tissue; conditions: human
[3] = test system: adult terminal ileum tissue; test: as above; conditions: adult, M > S (mucosal to serosal)
jejunum = conditions: mucosal to serosal direction, cited from earlier work
[4] = human in vivo; cited from earlier work
[5] = Papp, estimated marginal mean ± SE, pediatric, M > S (mucosal to serosal), mixed model
[6] = Papp, estimated marginal mean ± SE, pediatric, S > M (serosal to mucosal), mixed model
[7] = Papp, mean ± SD, pediatric, M > S (mucosal to serosal)
[8] = Papp, mean ± SD, pediatric, S > M (serosal to mucosal)
[9] = Papp, estimated marginal mean ± SE, adult, M > S (mucosal to serosal), mixed model
[10] = Papp, estimated marginal mean ± SE, adult, S > M (serosal to mucosal), mixed model
[11] = Papp, mean ± SD, adult, M > S (mucosal to serosal)
[12] = Papp, mean ± SD, adult, S > M (serosal to mucosal)
[13] = adult jejunum, ref Michiba et al., 2021 [19]

Structure (SMILES)	Papp [1, 5]	Papp [1, 6]	Papp [1, 7]	Papp [1, 8]	Papp [2, 9]	Papp [2, 10]	Papp [2, 11]	Papp [2, 12]	Papp, mean ± SD [3]	Papp (jejunum; [13])	fraction absorbed [4]	efflux ratio [1]	Papp at 4 µM [1, 8]	efflux ratio [2]	Papp at 4 µM [2, 12]	Papp (jejunum; jejunum, ref Sjoberg et al., 2013 [17])
CC(C)NCC(O)COc1cccc2ccccc12 (stereo not shown) [Propranolol]	7.98 ± 1.45 ×10⁻⁶ cm/s	7.74 ± 1.47 ×10⁻⁶ cm/s	7.49 ± 4.58 ×10⁻⁶ cm/s	8.27 ± 4.7 ×10⁻⁶ cm/s	12 ± 1.28 ×10⁻⁶ cm/s	10.3 ± 1.27 ×10⁻⁶ cm/s	12.4 ± 6.2 ×10⁻⁶ cm/s	10.7 ± 5.02 ×10⁻⁶ cm/s	12.38 ± 6.15 ×10^–6 cm/s	7.8 ± 4.6 × 10^−6 cm/s	–	–	–	–	–	–
CC(C)c1nc(N(C)S(C)(=O)=O)nc(-c2ccc(F)cc2)c1/C=C/[C@@H](O)C[C@@H](O)CC(=O)O [Rosuvastatin]	3.8 ± 0.88 ×10⁻⁶ cm/s	7.53 ± 1 ×10⁻⁶ cm/s	4.73 ± 2.04 ×10⁻⁶ cm/s	7.53 ± 3.66 ×10⁻⁶ cm/s	6.32 ± 0.97 ×10⁻⁶ cm/s	11.2 ± 0.91 ×10⁻⁶ cm/s	6.3 ± 2.8 ×10⁻⁶ cm/s	11.2 ± 5.49 ×10⁻⁶ cm/s	–	1.6 ± 0.6 × 10^−6 cm/s	50%	1.3 ± 0.6	7.5 ± 3.7 ×10⁻⁶ cm/s	2.1 ± 1	11.2 ± 5.5 ×10⁻⁶ cm/s	7.0 ± 1.0 × 10^−6 cm/s

From publication PMC9579398 (Clinical and Translational Science, 2022)
